{"source": "patent US20070053866A1", "about": "“IN-CAN AND DRY COATING ANTIMICROBIAL COMPOSITIONS HAVING HYDROXY ANALOGS OF METHIONINE AND DERIVATIVES” (NOVUS INTERNATIONAL INC., priority 2005, published 2007)", "key": {"[1]": {"system": "Penicillium and Aspergilus sp.", "test": "Dry-film alkyd paint mold and mildew resistance in environmental chamber (ASTM D 3273-94, ASTM D 3274-95)", "assay_type": "cell-based", "settings": "scale of 1 to 10, 10 being totally free of growth; for ASTM RATING Mean: One month in the environmental chamber, added at 1% to alkyd paint; for ASTM Rating: Three months of continuous alkyd paint testing in the environmental chamber", "description": "Accelerated testing of biocides in paints is conducted using environmental chambers maintained at constant high humidity (85-88% relative humidity) and temperature (30-33° C.). The chamber was primed with spores of Penicillium and Aspergilus sp. to accelerate the formation of fungal organisms. Wood panels are coated with the experimental paints and placed inside the chamber for a period of 4-12 weeks. The relative resistance of the paint to the mold and mildew inside the chamber was evaluated subjectively from a scale of 1 to 10, with 10 being totally free of growth. This test is described in more detail in ASTM D 3273-94 and ASTM D 3274-95.\nPaint preservatives listed in table 5 below were added at 1% to alkyd paint formulations. HMTBA-Zn is a zinc metal chelate as described above; HMTBA-Cu is a copper metal chelate as described above; HMTBA-Mn is a manganese metal chelate as described above; BIOX-S is 6-ethoxy-1,2-dihydro-2,2,4-trimethylquinoline; BIOX-A is 88 wt. % HMTBA; BIOX-ASL contains 35 wt. % of 2-hydroxy-4-methylthio butanoic acid (88%), 45 wt. % of formic acid, 10 wt. % phosphoric acid and 10 wt. % lactic acid; and BIOX-EZ/7030 contains 70 wt. % of 6-ethoxy-1,2-dihydro-2,2,4-trimethylquinoline and 30 wt. % of HMTBA-Zn metal chelate. Troy663 is a positive control."}, "[2]": {"system": "Pseudomonas aeruginosa ATCC 10145 and Enterobacter aerogenes ATCC 13048", "test": "In-can paint preservation: bacterial resistance rating of inoculated water borne paint", "assay_type": "cell-based", "design": "key: 0: no bacterial recovery; trace of contamination (1 to 9 colonies); 2: light contamination (10 to 99 colonies); 3: moderate contamination (>100 distinct colonies); 4: heavy contamination (continuous smear of growth)", "description": "Paint preservatives listed in the tables below were added at the listed concentrations to water borne paint formulations. BIOX-ASL contains 35 wt. % of 2-hydroxy-4-methylthio butanoic acid (88%), 45 wt. % of formic acid, 10 wt. % phosphoric acid and 10 wt. % lactic acid; BIOX-AWD contains 40 wt. % of 2-hydroxy-4-methylthio butanoic acid, 40 wt. % of formic acid and 20 wt. % propionic acid; BIOX-ASDA contains 36.4 wt. % of calcium bis(2-hydroxy-4-methylthiobuanoate), 41.9 wt. % of fumaric acid, 20 wt. % of benzoic acid, 0.9 wt. % flow aid and 0.73 wt. % other additives; HTA and BIOBAN BP30 are commercially available; BIOX-Z is a HMTBA-Zn metal chelate, and BIOX-C is a HMTBA-Cu metal chelate.\nThe paints were inoculated with Pseudomonas aeruginosaATCC 10145 and Enterobacter aerogenes ATCC 13048 at a level of 0.1% inoculum, and paints were then sampled during the next seven days to determine the number of bacterial colonies surviving in the paint. The efficacy of the added antimicrobial agents were given a numeric rating based on the following system: (0) for no bacterial recovery, (1) for trace of contamination (1 to 9 colonies), (2) for light contamination (10 to 99 colonies), (3) for moderate contamination (>100 distinct colonies) and (4) for heavy contamination (continuous smear of growth).\nThe paints were then inoculated at a level of 1.0% inoculum and were again sampled during the next seven days to determine the number of bacterial colonies surviving in the paint. These ratings were also plotted versus day after inoculation for each concentration of BIOX-ASL, BIOX-AWD, BIOX-ASDA, and BIOX-C, and are presented in FIGS. 1-4. The minimum inhibitory concentration (MIC) of each BIOX biocide was much lower after one week than those of commercially available products, as shown in FIG. 5."}, "[3]": {"settings": "Table 1, week 1, 0.1% inoculum, 5 ppm in water borne paint"}, "[4]": {"settings": "Table 1, week 1, 0.1% inoculum, 25 ppm in water borne paint"}, "[5]": {"settings": "Table 2, week 2, 1.0% inoculum, 5 ppm in water borne paint"}, "[6]": {"settings": "Table 2, week 2, 1.0% inoculum, 25 ppm in water borne paint"}, "[7]": {"settings": "Table 3, Week 1: 0.1% Inoculum, sample at 1.0%"}, "[8]": {"settings": "Table 3, Week 2: 1.0% Inoculum, sample at 1.0%"}, "[9]": {"settings": "Table 4, Week 1: 0.1% Inoculum, sample at 1.0% (Bioban BP30: concentration not given)"}, "[10]": {"settings": "Table 4, Week 2: 1.0% Inoculum, sample at 1.0%"}}, "data": [{"smiles": "CSCCC(O)C(=O)O", "note": "(stereo not drawn) [BIOX-A, 2-hydroxy-4(methylthio)butanoic acid]", "values": [{"measurement": "ASTM RATING Mean", "setting": "[1]", "result": 9.2}]}, {"smiles": "CSCCC(O)C(=O)[O-].CSCCC(O)C(=O)[O-].[Cu+2]", "note": "(stereo not drawn) [BIOX-C, copper 2-hydroxy-4-methylthiobutanoate chelate]", "values": [{"measurement": "Bacteria Resistance Rating, Before Inoculation", "setting": "[2]; [3]", "result": 0}, {"measurement": "Bacteria Resistance Rating, Day 1", "setting": "[2]; [3]", "result": 0}, {"measurement": "Bacteria Resistance Rating, Day 2", "setting": "[2]; [3]", "result": 0}, {"measurement": "Bacteria Resistance Rating, Day 5", "setting": "[2]; [3]", "result": 0}, {"measurement": "Bacteria Resistance Rating, Day 7", "setting": "[2]; [3]", "result": 0}, {"measurement": "Bacteria Resistance Rating, Initial Inoculation", "setting": "[2]; [3]", "result": 4}, {"measurement": "Bacteria Resistance Rating, Before Inoculation", "setting": "[2]; [4]", "result": 0}, {"measurement": "Bacteria Resistance Rating, Day 1", "setting": "[2]; [4]", "result": 0}, {"measurement": "Bacteria Resistance Rating, Day 2", "setting": "[2]; [4]", "result": 0}, {"measurement": "Bacteria Resistance Rating, Day 5", "setting": "[2]; [4]", "result": 0}, {"measurement": "Bacteria Resistance Rating, Day 7", "setting": "[2]; [4]", "result": 0}, {"measurement": "Bacteria Resistance Rating, Initial Inoculation", "setting": "[2]; [4]", "result": 4}, {"measurement": "Bacteria Resistance Rating, Before Inoculation", "setting": "[2]; [5]", "result": 0}, {"measurement": "Bacteria Resistance Rating, Day 1", "setting": "[2]; [5]", "result": "3 (moderate contamination (>100 distinct colonies))"}, {"measurement": "Bacteria Resistance Rating, Day 2", "setting": "[2]; [5]", "result": "1 (trace of contamination (1 to 9 colonies))"}, {"measurement": "Bacteria Resistance Rating, Day 5", "setting": "[2]; [5]", "result": 0}, {"measurement": "Bacteria Resistance Rating, Day 7", "setting": "[2]; [5]", "result": 0}, {"measurement": "Bacteria Resistance Rating, Initial Inoculation", "setting": "[2]; [5]", "result": 4}, {"measurement": "Bacteria Resistance Rating, Before Inoculation", "setting": "[2]; [6]", "result": 0}, {"measurement": "Bacteria Resistance Rating, Day 1", "setting": "[2]; [6]", "result": "3 (moderate contamination (>100 distinct colonies))"}, {"measurement": "Bacteria Resistance Rating, Day 2", "setting": "[2]; [6]", "result": 0}, {"measurement": "Bacteria Resistance Rating, Day 5", "setting": "[2]; [6]", "result": 0}, {"measurement": "Bacteria Resistance Rating, Day 7", "setting": "[2]; [6]", "result": 0}, {"measurement": "Bacteria Resistance Rating, Initial Inoculation", "setting": "[2]; [6]", "result": 4}, {"measurement": "Bacterial Resistance Rating, Day 1", "setting": "[2]; [7]", "result": "2 (light contamination (10 to 99 colonies))"}, {"measurement": "Bacterial Resistance Rating, Day 2", "setting": "[2]; [7]", "result": 0}, {"measurement": "Bacterial Resistance Rating, Day 5", "setting": "[2]; [7]", "result": 0}, {"measurement": "Bacterial Resistance Rating, Day 7", "setting": "[2]; [7]", "result": 0}, {"measurement": "Bacterial Resistance Rating, Initial", "setting": "[2]; [7]", "result": 4}, {"measurement": "Bacterial Resistance Rating, Day 1", "setting": "[2]; [8]", "result": 0}, {"measurement": "Bacterial Resistance Rating, Day 2", "setting": "[2]; [8]", "result": 0}, {"measurement": "Bacterial Resistance Rating, Day 5", "setting": "[2]; [8]", "result": 0}, {"measurement": "Bacterial Resistance Rating, Day 7", "setting": "[2]; [8]", "result": 0}, {"measurement": "Bacterial Resistance Rating, Initial", "setting": "[2]; [8]", "result": 4}, {"measurement": "Bacterial Resistance Rating, Day 1", "setting": "[2]; [9]", "result": 0}, {"measurement": "Bacterial Resistance Rating, Day 2", "setting": "[2]; [9]", "result": 0}, {"measurement": "Bacterial Resistance Rating, Day 5", "setting": "[2]; [9]", "result": 0}, {"measurement": "Bacterial Resistance Rating, Day 7", "setting": "[2]; [9]", "result": 0}, {"measurement": "Bacterial Resistance Rating, Initial", "setting": "[2]; [9]", "result": 4}, {"measurement": "Bacterial Resistance Rating, Day 1", "setting": "[2]; [10]", "result": 0}, {"measurement": "Bacterial Resistance Rating, Day 2", "setting": "[2]; [10]", "result": 0}, {"measurement": "Bacterial Resistance Rating, Day 5", "setting": "[2]; [10]", "result": 0}, {"measurement": "Bacterial Resistance Rating, Initial", "setting": "[2]; [10]", "result": 4}, {"measurement": "ASTM RATING Mean", "setting": "[1]", "result": 9.3}, {"measurement": "ASTM Rating", "setting": "[1]", "result": "9.0 ± 0.6"}]}, {"smiles": "CCOc1ccc2c(c1)C(C)=CC(C)(C)N2", "note": "[BIOX-S, 6-ethoxy-1,2-dihydro-2,2,4-trimethylquinoline]", "values": [{"measurement": "ASTM RATING Mean", "setting": "[1]", "result": 9.2}]}, {"smiles": "CSCCC(O)C(=O)[O-].CSCCC(O)C(=O)[O-].[Zn+2]", "note": "(stereo not drawn) [BIOX-Z]", "values": [{"measurement": "Bacterial Resistance Rating, Day 1", "setting": "[2]; [7]", "result": 0}, {"measurement": "Bacterial Resistance Rating, Day 2", "setting": "[2]; [7]", "result": 0}, {"measurement": "Bacterial Resistance Rating, Day 5", "setting": "[2]; [7]", "result": 0}, {"measurement": "Bacterial Resistance Rating, Day 7", "setting": "[2]; [7]", "result": 0}, {"measurement": "Bacterial Resistance Rating, Initial", "setting": "[2]; [7]", "result": 4}, {"measurement": "Bacterial Resistance Rating, Day 1", "setting": "[2]; [8]", "result": "1 (trace of contamination (1 to 9 colonies))"}, {"measurement": "Bacterial Resistance Rating, Day 2", "setting": "[2]; [8]", "result": 0}, {"measurement": "Bacterial Resistance Rating, Day 5", "setting": "[2]; [8]", "result": 0}, {"measurement": "Bacterial Resistance Rating, Day 7", "setting": "[2]; [8]", "result": 0}, {"measurement": "Bacterial Resistance Rating, Initial", "setting": "[2]; [8]", "result": 4}, {"measurement": "Bacterial Resistance Rating, Day 1", "setting": "[2]; [9]", "result": "1 (trace of contamination (1 to 9 colonies))"}, {"measurement": "Bacterial Resistance Rating, Day 2", "setting": "[2]; [9]", "result": 0}, {"measurement": "Bacterial Resistance Rating, Day 5", "setting": "[2]; [9]", "result": 0}, {"measurement": "Bacterial Resistance Rating, Day 7", "setting": "[2]; [9]", "result": 0}, {"measurement": "Bacterial Resistance Rating, Initial", "setting": "[2]; [9]", "result": 4}, {"measurement": "Bacterial Resistance Rating, Day 1", "setting": "[2]; [10]", "result": "1 (trace of contamination (1 to 9 colonies))"}, {"measurement": "Bacterial Resistance Rating, Day 2", "setting": "[2]; [10]", "result": 0}, {"measurement": "Bacterial Resistance Rating, Day 5", "setting": "[2]; [10]", "result": 0}, {"measurement": "Bacterial Resistance Rating, Initial", "setting": "[2]; [10]", "result": 4}, {"measurement": "ASTM RATING Mean", "setting": "[1]", "result": 8.7}]}, {"smiles": "[Cu+2].[O-]n1ccccc1=S.[O-]n1ccccc1=S", "note": "[COPPER OMADINE, reference compound]", "values": [{"measurement": "ASTM Rating", "setting": "[1]", "result": "9.2 ± 0.4"}]}, {"smiles": "CSCCC(O)C(=O)[O-].CSCCC(O)C(=O)[O-].[Mn+2]", "note": "(stereo not drawn) [HMTBA-Mn]", "values": [{"measurement": "ASTM RATING Mean", "setting": "[1]", "result": 7.8}]}, {"smiles": "C1N2CN3CN1CN(C2)C3", "note": "[HTA, reference compound]", "values": [{"measurement": "Bacterial Resistance Rating, Day 1", "setting": "[2]; [7]", "result": 4}, {"measurement": "Bacterial Resistance Rating, Day 2", "setting": "[2]; [7]", "result": 4}, {"measurement": "Bacterial Resistance Rating, Day 5", "setting": "[2]; [7]", "result": 4}, {"measurement": "Bacterial Resistance Rating, Day 7", "setting": "[2]; [7]", "result": 4}, {"measurement": "Bacterial Resistance Rating, Initial", "setting": "[2]; [7]", "result": 4}]}, {"smiles": "c1cc[n+]2c(c1)[S][Zn-2]1([O]2)[O][n+]2ccccc2[S]1", "note": "[ZINC-OMADINE, reference compound]", "values": [{"measurement": "ASTM Rating", "setting": "[1]", "result": "8.3 ± 0.8"}]}]}
